Square brackets hold non-standard residues; d marks the D form. Peptide text beside a SMILES is read from it. * marks the point of attachment. dPhe(4-NHCONH2) = NC(=O)Nc1ccc(C[C@@H](N)C(=O)O)cc1; Dihydroorotyl(S) = O=C1C[C@@H](C(=O)*)NC(=O)N1; dPhe(4-Cl) = N[C@H](Cc1ccc(Cl)cc1)C(=O)O; Phe(4-NH2) = Nc1ccc(C[C@H](N)C(=O)O)cc1; d2Nal = N[C@H](Cc1ccc2ccccc2c1)C(=O)O; Lys(iPr) = CC(C)NCCCC[C@H](N)C(=O)O; d3Pal = N[C@H](Cc1cccnc1)C(=O)O
How the values were obtained:
[1] = system: Pb_KLK2×Hi-Myc mice; type: in vivo
Description: A final clinical simulation involved non-invasive imaging of the impact of different degrees of inhibition on AR activity in the tumor (intratumoral) and prostate itself (intraprostatic). Progression of disease was initially monitored in 14 Pb_KLK2 XHi-Myc mice using ^89Zr-11B6 PET. Thereafter, mice were randomized into 3 treatment groups: vehicle (n=4), castration (n=6), or castration plus Enzalutamide (n=4).
PET imaging experiments were conducted on a micro-PET Focus 120 scanner (Concorde Microsystems). In initial studies, mice (n=4) were administered formulations of ^89Zr-11B6 [3.7-5.55 MBq (100-150 μCi), 300, 100, 50, or 25 μg of protein, in 150 μL sterile saline for injection] through i.v. Tail-vein injection. Approximately 5 minutes before recording PET images, mice were anesthetized by inhalation of 1% to 2% isoflurane (Baxter Healthcare)/oxygen gas mixture and placed on the scanner bed. PET images were recorded at various time points between 1 and 344 hours post-injection. […] For all static images, scan time was adjusted to ensure between 15-25 million coincident events were recorded.
Site-directed mutagenesis of APLILSR to APLRTKR at positions […], -3, and -2 the zymogen sequence of KLK2 was performed using a Quick Change Lightning Mutagenesis Kit (Stratagene). […] Mice were monitored closely in accordance with IACUC-established guidelines and RARC animal protocol (#04-01-002).

[2] = system: VCaP; experiment: 18F-FDHT imaging in VCaP bearing mouse; type: in vivo; settings: 1.5 h after administration
Description: The distribution at 1.5 h after administration in a representative VCaP (arrow) bearing mouse. ^18F-FDHT is a radiolabeled analog of the non-aromatizable dihydrotestosterone.

SMILES: CC(=O)N[C@H](Cc1ccc2ccccc2c1)C(=O)N[C@H](Cc1ccc(Cl)cc1)C(=O)N[C@H](Cc1cccnc1)C(=O)N[C@@H](CO)C(=O)N[C@@H](Cc1ccc(NC(=O)[C@@H]2CC(=O)NC(=O)N2)cc1)C(=O)N[C@H](Cc1ccc(NC(N)=O)cc1)C(=O)N[C@@H](CC(C)C)C(=O)N[C@@H](CCCCNC(C)C)C(=O)N1CCC[C@H]1C(=O)N[C@H](C)C(N)=O [Degarelix] (Ac-[d2Nal][dPhe(4-Cl)][d3Pal]S[Phe(4-NH2)](Dihydroorotyl(S))[dPhe(4-NHCONH2)]L[Lys(iPr)]P[dA]-NH2)
- ^89Zr-11B6 uptake (AR pathway readout) during GnRH antagonist therapy ([1]; depot injections, androgen ablation for 2 months): decreased following castration but reemerged at the end of the treatment period

SMILES: CNC(=O)c1ccc(N2C(=S)N(c3ccc(C#N)c(C(F)(F)F)c3)C(=O)C2(C)C)cc1F [Enzalutamide]
- reactivation of ^89Zr-11B6 uptake (AR activity) after castration plus adjuvant androgen receptor blockade ([1]; castration plus Enzalutamide, n=4): not significant

SMILES: CC12CCC(=O)CC1CCC1C2CCC2(C)C(O)C([18F])CC12 (stereo not drawn) [^18F-FDHT]
- Liver, bile and kidney uptake relative to tumor uptake [2]: equivalent to or exceeds tumor uptake

Reference: patent publication US20180326102A1, “SYSTEMS, METHODS, AND COMPOSITIONS FOR IMAGING ANDROGEN RECEPTOR AXIS ACTIVITY IN CARCINOMA, AND RELATED THERAPEUTIC COMPOSITIONS AND METHODS” (Memorial Sloan Kettering Cancer Center, priority 2015, published 2018)
